# Reference: US10329289B2, “6,7-dihydro-5H-pyrrolo[3,4-B]pyridin-5-one allosteric modulators of the M4 muscarinic acetylcholine receptor” (Merck Sharp & Dohme Corp., priority 2015, dated 2019)
# Target: T1, human M4 muscarinic acetylcholine receptor (Homo sapiens, UniProt P08173)
# T1 construct: expressed in transfected cells; host or cells: CHO-K1
# T1 sequence (P08173 1-479): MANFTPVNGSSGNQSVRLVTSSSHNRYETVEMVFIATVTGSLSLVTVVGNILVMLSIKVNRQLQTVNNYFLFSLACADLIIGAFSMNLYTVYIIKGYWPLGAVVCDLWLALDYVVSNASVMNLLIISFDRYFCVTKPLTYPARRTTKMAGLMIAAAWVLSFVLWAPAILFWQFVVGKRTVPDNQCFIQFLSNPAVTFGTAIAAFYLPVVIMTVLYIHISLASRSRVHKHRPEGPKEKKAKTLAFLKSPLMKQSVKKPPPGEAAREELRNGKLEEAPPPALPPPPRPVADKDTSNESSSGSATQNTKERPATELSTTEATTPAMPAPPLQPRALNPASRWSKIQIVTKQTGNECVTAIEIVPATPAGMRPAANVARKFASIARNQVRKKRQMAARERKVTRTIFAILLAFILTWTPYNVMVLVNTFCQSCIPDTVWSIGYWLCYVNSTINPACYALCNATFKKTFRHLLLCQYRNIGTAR
# Test: human FLIPR-based M4 PAM assay (Ca2+ mobilization, CHO-K1 cells with human M4 receptor and Gαqi5)
# Format: cell-based
# Details: acetylcholine at 20% of maximum response, read-out: M4 PAM IP
# How it was run: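 Calcium-mobilization (FLIPR) readout in dye-loaded CHO-K1 cells co-expressing human M4 receptor and Gαqi5. Potentiation measured against acetylcholine at a concentration giving 20% of maximal response, with an optional 70% addition; the reported value is the curve inflection point from a 4-parameter logistic fit.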
row,Compound,EC50 [nM]
1,"Cc1cc2c(nc1N1CCC(Oc3ccc(N)nc3)CC1)CNC2=O [Example 104, 2-(4-((6-aminopyridin-3-yl)oxy)piperidin-1-yl)-3-methyl-6,7-dihydro-5H-pyrrolo[3,4-b]pyridin-5-one]",60
2,"Cc1cc2c(nc1N1CCC(Oc3ccc(N4CCC4)nc3)CC1)CNC2=O [Example 105, 2-(4-((6-(azetidin-1-yl)pyridin-3-yl)oxy)piperidin-1-yl)-3-methyl-6,7-dihydro-5H-pyrrolo[3,4-b]pyridin-5-one]",104
3,"Cc1cc2c(nc1N1CCC(Oc3ccc4c(c3)NCCO4)CC1)CNC2=O [Example 107, 2-(4-((3,4-dihydro-2H-benzo[b][1,4]oxazin-6-yl)oxy)piperidin-1-yl)-3-methyl-6,7-dihydro-5H-pyrrolo[3,4-b]pyridin-5-one]",87
4,"Cc1cc2c(nc1N1CCC(Oc3ccc4c(c3)CCO4)CC1)CNC2=O [Example 109, 2-(4-((2,3-dihydrobenzofuran-5-yl)oxy)piperidin-1-yl)-3-methyl-6,7-dihydro-5H-pyrrolo[3,4-b]pyridin-5-one]",20
5,"COC(=O)c1cncc(OC2CCN(c3nc4c(cc3C)C(=O)NC4)CC2)c1 [Example 111, methyl 5-((1-(3-methyl-5-oxo-6,7-dihydro-5H-pyrrolo[3,4-b]pyridin-2-yl)piperidin-4-yl)oxy)nicotinate]",4360
6,"Cc1cc2c(nc1N1CCC(Oc3ccc4c(c3)OCCC4)CC1)CNC2=O [Example 113, 2-(4-(chroman-7-yloxy)piperidin-1-yl)-3-methyl-6,7-dihydro-5H-pyrrolo[3,4-b]pyridin-5-one]",50
7,"COc1ncc(OC2CCN(c3nc4c(cc3C)C(=O)NC4)CC2)cc1C [Example 115, 2-(4-((6-methoxy-5-methylpyridin-3-yl)oxy)piperidin-1-yl)-3-methyl-6,7-dihydro-5H-pyrrolo[3,4-b]pyridin-5-one]",119
8,"Cc1cc2c(nc1N1CCC(Oc3ccc4c(c3)CCCO4)CC1)CNC2=O [Example 116, 2-(4-(chroman-6-yloxy)piperidin-1-yl)-3-methyl-6,7-dihydro-5H-pyrrolo[3,4-b]pyridin-5-one]",45
9,"Cc1cc2c(nc1N1CCC(Oc3ccc4c(c3)CCC(=O)N4)CC1)CNC2=O [Example 118, 6-((1-(3-methyl-5-oxo-6,7-dihydro-5H-pyrrolo[3,4-b]pyridin-2-yl)piperidin-4-yl)oxy)-3,4-dihydroquinolin-2(1H)-one]",141
10,"Cc1ccc(OC2CCN(c3nc4c(cc3C)C(=O)NC4)CC2)cc1C [Example 119, 2-(4-(3,4-dimethylphenoxy)piper-idin-1-yl)-3-methyl-6,7-dihydro-5H-pyrrolo[3,4-b]pyridin-5-one]",149
11,"Cc1cc2c(nc1N1CCC(Oc3ccc(OCC(F)(F)F)nc3)CC1)CNC2=O [Example 120, 3-methyl-2-(4-((6-(2,2,2-trifluoroethoxy)pyridin-3-yl)oxy)piperidin-1-yl)-6,7-dihydro-5H-pyrrolo[3,4-b]pyridin-5-one]",256
12,"Cc1cc2c(nc1N1CCC(Oc3ccc4c(c3)CCOC4=O)CC1)CNC2=O [Example 121, 3-methyl-2-(4-((1-oxoisochroman-6-yl)oxy)piperidin-1-yl)-6,7-dihydro-5H-pyrrolo[3,4-b]pyridin-5-one]",1920
13,"Cc1nc2ccc(OC3CCN(c4nc5c(cc4C)C(=O)NC5)CC3)cc2s1 [Example 122, 3-methyl-2-(4-((2-methylbenzo[d]thiazol-6-yl)oxy)piperidin-1-yl)-6,7-dihydro-5H-pyrrolo[3,4-b]pyridin-5-one]",2110
14,"Cc1nc2cc(OC3CCN(c4nc5c(cc4C)C(=O)NC5)CC3)ccc2o1 [Example 123, 3-methyl-2-(4-((2-methylbenzo[d]oxazol-5-yl)oxy)piperidin-1-yl)-6,7-dihydro-5H-pyrrolo[3,4-b]pyridin-5-one]",144
15,"Cc1cc2c(nc1N1CCC(Oc3ccc4c(c3)COC4(C)C)CC1)CNC2=O [Example 126, 2-(4-((1,1-dimethyl-1,3-dihydro-2-benzofuran-5-yl)oxy)piperidin-1-yl)-3-methyl-6,7-dihydro-5H-pyrrolo[3,4-b]pyridin-5-one]",216
16,"Cc1cc2c(nc1N1CCC(Oc3ccc4ccc(=O)[nH]c4c3)CC1)CNC2=O [Example 128, 7-((1-(3-methyl-5-oxo-6,7-dihydro-5H-pyrrolo[3,4-b]pyridin-2-yl)piperidin-4-yl)oxy)quinolin-2(1H)-one]",2370
17,"Cc1cc2c(nc1N1CCC(Oc3ccc4c(c3)c(C)nn4C)CC1)CNC2=O [Example 129, 2-(4-((1,3-dimethyl-1H-indazol-5-yl)oxy)piperidin-1-yl)-3-methyl-6,7-dihydro-5H-pyrrolo[3,4-b]pyridin-5-one]",1090
18,"Cc1cc2c(nc1N1CCC(Oc3ccc4c(c3)OCCO4)CC1)CNC2=O [Example 132, 2-(4-((2,3-dihydrobenzo[b][1,4]dioxin-6-yl)oxy)piperidin-1-yl)-3-methyl-6,7-dihydro-5H-pyrrolo[3,4-b]pyridin-5-one]",30
19,"Cc1cc2c(nc1N1CCC(Oc3ccc4c(c3)OCC(=O)N4)CC1)CNC2=O [Example 133, 7-((1-(3-methyl-5-oxo-6,7-dihydro-5H-pyrrolo[3,4-b]pyridin-2-yl)piperidin-4-yl)oxy)-2H-benzo[b][1,4]oxazin-3(4H)-one]",611
20,"Cc1ccc(OC2CCN(c3nc4c(cc3C)C(=O)NC4)CC2)cc1F [Example 134, 2-(4-(3-fluoro-4-methylphenoxy)piperidin-1-yl)-3-methyl-6,7-dihydro-5H-pyrrolo[3,4-b]pyridin-5-one]",167
21,"Cc1cc2c(nc1N1CCC(Oc3cnc4c(c3)oc(=O)n4C)CC1)CNC2=O [Example 136, 3-methyl-6-((1-(3-methyl-5-oxo-6,7-dihydro-5H-pyrrolo[3,4-b]pyridin-2-yl)piperidin-4-yl)oxy)oxazolo[4,5-b]pyridin-2(3H)-one]",3470

# More lines, in order of falling EC50, values ahead:
row,EC50 [nM],Compound
1,1520,"Cc1cc2c(nc1N1CCC(Oc3ccccn3)CC1)CNC2=O [Example 131, 3-methyl-2-(4-(pyridin-2-yloxy)piperidin-1-yl)-6,7-dihydro-5H-pyrrolo[3,4-b]pyridin-5-one]"
2,612,"Cc1cc2c(nc1N1CCC(Oc3ccc4c(c3)C(C)(C)CCO4)CC1)CNC2=O [Example 125, 2-(4-((4,4-dimethylchroman-6-yl)oxy)piperidin-1-yl)-3-methyl-6,7-dihydro-5H-pyrrolo[3,4-b]pyridin-5-one]"
3,480,"Cc1cc2c(nc1N1CCC(Oc3ccc4c(c3)CCC(C)(C)O4)CC1)CNC2=O [Example 127, 2-(4-((2,2-dimethylchroman-6-yl)oxy)piperidin-1-yl)-3-methyl-6,7-dihydro-5H-pyrrolo[3,4-b]pyridin-5-one]"
4,362,"Cc1cc2c(nc1N1CCC(Oc3ccc(OC(F)(F)F)nc3)CC1)CNC2=O [Example 124, 3-methyl-2-(4-((6-(trifluoromethoxy)pyri-din-3-yl)oxy)piperidin-1-yl)-6,7-dihydro-5H-pyrrolo[3,4-b]pyridin-5-one]"
5,298,"Cc1cc2c(nc1N1CCC(Oc3ccc(N(C)C)nc3)CC1)CNC2=O [Example 106, 2-(4-((6-(dimethylamino)pyridin-3-yl)oxy)piperidin-1-yl)-3-methyl-6,7-dihydro-5H-pyrrolo[3,4-b]pyridin-5-one]"
6,217,"Cc1cc2c(nc1N1CCC(Oc3ccc4c(c3)C(=O)NCC4)CC1)CNC2=O [Example 135, 7-((1-(3-methyl-5-oxo-6,7-dihydro-5H-pyrrolo[3,4-b]pyridin-2-yl)piperidin-4-yl)oxy)-3,4-dihydroisoquinolin-1(2H)-one]"
7,105,"Cc1cc2c(nc1N1CCC(Oc3ccc4c(c3)C(C)(C)CO4)CC1)CNC2=O [Example 130, 2-(4-((3,3-dimethyl-2,3-dihydrobenzofuran-5-yl)oxy)piperidin-1-yl)-3-methyl-6,7-dihydro-5H-pyrrolo[3,4-b]pyridin-5-one]"
8,88,"Cc1cc(OC2CCN(c3nc4c(cc3C)C(=O)NC4)CC2)cnc1C [Example 114, 2-(4-((5,6-dimethylpyridin-3-yl)oxy)piperidin-1-yl)-3-methyl-6,7-dihydro-5H-pyrrolo[3,4-b]pyridin-5-one]"
9,59,"Cc1cc(OC2CCN(c3nc4c(cc3C)C(=O)NC4)CC2)ccc1F [Example 108, 2-(4-(4-fluoro-3-methylphenoxy)piperidin-1-yl)-3-methyl-6,7-dihydro-5H-pyrrolo[3,4-b]pyridin-5-one]"
10,39,"Cc1cc2c(nc1N1CCC(Oc3ccc4c(c3)C(=O)OC4)CC1)CNC2=O [Example 110, 3-methyl-2-(4-((3-oxo-1,3-dihydro-2-benzofuran-5-yl)oxy)piperidin-1-yl)-6,7-dihydro-5H-pyrrolo[3,4-b]pyridin-5-one]"
11,20,"Cc1cc2c(nc1N1CCC(Oc3ccc4c(c3)COCC4)CC1)CNC2=O [Example 112, 2-(4-(isochroman-7-yloxy)piperidin-1-yl)-3-methyl-6,7-dihydro-5H-pyrrolo[3,4-b]pyridin-5-one]"
12,17,"Cc1cc2c(nc1N1CCC(Oc3ccc4[nH]nc(C)c4c3)CC1)CNC2=O [Example 117, 3-methyl-2-(4-((3-methyl-1H-indazol-5-yl)oxy)piperidin-1-yl)-6,7-dihydro-5H-pyrrolo[3,4-b]pyridin-5-one]"
